Assays:
hepatocytes = experiment: In vivo BrdU incorporation (osmotic pump, 6 days); parameters: species or system mice
Procedure: In vivo BrdU incorporation. For surgical implant, mice were anesthetized with isoflurane, and osmotic pumps (#1002, Alzet) releasing 8.5 mg/kg/day 5-bromo-2-deoxyuridine (BrdU, Sigma) and 0.4 mg/kg/day FGF19 protein were implanted subcutaneously on the back on day 1. Incisions were closed with surgical clippers and 3-0 silk suture. Mice were euthanized on day 6, and serum and livers were collected for exposure and BrdU incorporation analysis.
(§1) Histology and immunohistochemistry. […] Hematoxylin and eosin staining was performed using standard methods. […] When indicated, sections were counterstained with hematoxylin.
Flow cytometry. For quantification of BrdU incorporation by flow cytometry, livers were minced in RPMI media containing 0.1% collagenase for 30 minutes at 37° C. and passed through 70 μm filter. […]. Cells were analyzed on a BD Caliper flow cytometer and data were collected using CellQuest software and analyzed using Flowjo program.
To determine the direct effect of FGF19 on hepatocyte proliferation in a cell autonomous manner, the proliferative effects of FGF19 in vivo and in isolated hepatocytes were compared by assessing the incorporation of 5-bromo-2-deoxyuridine (BrdU) into newly synthesized DNA. FGF19 was administered at a concentration of 0.4 mg/kg/day and BrdU was administered at 8.5 mg/kg/day. After being administered to mice for six days through an osmotic pump, recombinant FGF19 protein induced incorporation of BrdU into hepatocytes as evidenced by immunohistochemical staining (with hematoxylin) and by flow cytometry analysis (hepatocytes were stained with 7-AAD and anti-BrdU-APC) (FIGS. 2A and 2B). […] Plasma concentrations of FGF19 were 5.2±1.2 ng/mL at the end of the study (FIG. 2C).

FGF19-mediated HCC = experiment: Anti-IL-6 treatment in Mdr2-/- mice expressing AAV-FGF19; assay type: in vivo; conditions: prolonged expression of FGF19
Procedure: Blood parameters. […] Serum insulin was assessed with ELISA kits from ALPCO. […] All assays were performed according to the manufacturers' instructions.
as §1
Anti-IL-6 treatment in Mdr2^−/− mice. […] Anti-IL-6 treatment started 14 weeks after AAV injection. Mice were dosed with anti-mouse IL-6 antibody (Bio-X-Cell) or an isotype control antibody (Bio-X-Cell) once weekly i.p. at 10 mg/kg for a total of 10 doses. Mice were euthanized 24 weeks post-AAV administration for liver tumor assessment. When indicated, Mdr2^−/− mice injected with AAV-GFP serve as controls for evaluating serum levels of liver enzymes.

FGF19: Fibroblast growth factor 19, mature human 194 amino acid polypeptide (SEQ ID NO: 1); recombinant protein or AAV-expressed
BrdU-positive cells in liver (flow cytometry) (hepatocytes; 20 μg per mouse per day (0.4 mg/kg/day) by osmotic pump, six days): 9.2+1.5% | PCNA and Ki-67 expression (hepatocytes; FGF19-treated mice, osmotic pump, six days): higher | Plasma concentrations of FGF19 at the end of the study (hepatocytes; osmotic pump 0.4 mg/kg/day, day 6): 5.2 ± 1.2 ng/mL | Liver tumor formation (FGF19-mediated HCC): induced liver tumor formation

Source: patent publication US11370841B2, “Methods of treating fibroblast growth factor 19-mediated cancers and tumors” (NGM Biopharmaceuticals, Inc., priority 2016, dated 2022)
